From PMC4467398, “Preclinical antitumor activity of ST7612AA1: a new oral thiol-based histone deacetylase (HDAC) inhibitor” (Oncotarget, 2014)
Several values for one entry are separate records, joined by “and”; a condition that tells them apart may be missing. Identical values can stand only once. Like-named read-outs stand apart in the source and are kept apart here.

Key:
[1] = system: acetylation of alpha-tubulin in NCI-H460 NSCLC cells; experiment: Western blot with densitometry, tubulin acetylation; type: cell-based, human; details: 5 µM; NCI-H460; vehicle 0,341
Experimental: (§1) For assessing the in vitro effect of ST7612AA1 on acetylation of α-tubulin and histones, NSCLC cells were treated with the test compound at various concentrations (dose-response curve). SAHA 5 μM was used as reference inhibitor. Protein extraction, separation and immunoblotting were performed as previously described. Immunoreactive bands were finally subjected to densitometry analysis by a phosphoimaging system (STORM, Molecular Dynamics), and then the IC50 values were calculated by the “ALLFIT” computer program. The antibodies used are listed in Supplementary Table 2.

[2] = system: acetylation of histone H4 in NCI-H460 NSCLC cells; experiment: Western blot with densitometry, histone H4 acetylation; type: cell-based, human; details: 5 µM; NCI-H460; vehicle 0,0274
Experimental: as §1

HDAC1 = system: HDAC1; set-up: method as in PMID 25233084; details: cited from earlier work
[3] = set-up: method as in PMID 25233084; details: mean of IC50 on HDAC1, 10 and 11; cited from earlier work
HDAC8 = system: HDAC8; set-up: method as in PMID 25233084; details: cited from earlier work
[4] = PK sampling and analysis after a single oral dose of ST7612AA1 (plasma, LC-MS/MS); type: in vivo, CD1 mice; details: ST7464AA1 in plasma, single oral dose of 120 mg/kg of ST7612AA1
Experimental: CD1 nude mice were used. Male mice were treated with a single dose of ST7612AA1 at 120 mg/10 mL/kg p.o., using 5% Solutol HS 15 in water for injection as vehicle. Blood samples were collected at 0.25, 0.5, 1, 2, 4 and 6 h post treatment from 5 animals per time point. Levels of ST7612AA1 and ST7464AA1 were determined in plasma by quantitative LC-MS/MS having a limit of quantification of 25 ng/mL. The PK parameters Cmax (maximum plasma concentration), Tmax (time of maximum plasma concentration), Clast (last quantifiable concentration), Tlast (time of last quantifiable plasma concentration), AUClast (area under the concentration vs time curve from 0 to Tlast), AUCINF (area under the concentration vs time curve from 0 to infinity), T1/2 (terminal half-life), CL/F (apparent systemic clearance) and Vz/F (apparent terminal volume of distribution) were derived from the analyte plasma concentration vs time data according to a model independent approach for sparse data sampling by using Phoenix WinNonlin® ver. 6.3 software (Pharsight, Cetara).

HDAC6 = system: HDAC6; set-up: method as in PMID 25233084; details: cited from earlier work
HDAC3 = system: HDAC3; set-up: method as in PMID 25233084; details: mean of IC50 on HDAC3 and 6; cited from earlier work
HDAC11 = system: HDAC11; set-up: method as in PMID 25233084; details: mean of IC50 on HDAC1, 10 and 11; cited from earlier work
HDAC2 = system: HDAC2; set-up: method as in PMID 25233084; details: cited from earlier work
[5] = male, CD1 nude, mouse, mean ± SEM

Tlast [4] | AUC(0-inf) ([4]; male, CD1 nude, mouse) | CL/F ([4]; male, CD1 nude, mouse) | Tmax ([4]; male, CD1 nude, mouse) | half-life ([4]; male, CD1 nude, mouse) | AUC(0-t) [4, 5] | Cmax [4, 5] | concentration at 6 h ([4]; male, CD1 nude, mouse, read-out: Clast) | Vd/F ([4]; male, CD1 nude, mouse, read-out: Vz/F) | Compound | Acetyl tub./tubulin [1] | Acetyl H4/H4 [2] | IC50 (HDAC1; HDAC1) | IC50 (HDAC1; mean of IC50 on HDAC1, 10 and 11) | IC50 [3] | IC50 (HDAC8) | IC50 (HDAC6; HDAC6) | IC50 (HDAC6; mean of IC50 on HDAC3 and 6) | IC50 (HDAC3) | IC50 (HDAC11) | IC50 (HDAC2)
 |  |  |  |  |  |  |  |  | O=C(CCCCCCC(=O)Nc1ccccc1)NO [SAHA, suberoylanilide hydroxamic acid, reference compound] | 2,617 | 0,1537 |  |  |  |  |  |  |  |  | 
6.0 h | 5510 ng·h/mL | 363 mL/min/kg | 0.5 h | 3.8 h | 3750 ± 299 ng·h/mL | 1580 ± 478 ng/mL | 303 ng/mL | 119 L/kg | O=C1CC[C@H](C(=O)N[C@@H](CCCCCS)C(=O)Nc2ccccc2)N1 [ST7464AA1] |  |  | 0.0127 µM | 0.013 µM | 0.013 µM | 0.281 µM | 0.00318 µM | 0.004 µM | 0.004 µM | 0.013 µM | 0.0777 µM and 0.078 µM
